Laboratory results published in ChEMBL document CHEMBL1152504, “Design and synthesis of membrane fusion inhibitors against the feline immunodeficiency virus” (Bioorg Med Chem, 2009).
pIC50: −log10 of the molar value. Active and inactive are the calls of the source. The calls are words filed in the database; no cut-off is given here.

Legend:
[1] = Inhibition of Feline immunodeficiency virus Petaluma envelope glycoprotein gp40 assessed as inhibition of HR1-HR2 interaction after 1.5 hrs by ELISA
[2] = Inhibition of Feline immunodeficiency virus Shizuoka envelope glycoprotein gp40 assessed as inhibition of HR1-HR2 interaction after 1.5 hrs by ELISA
[3] = Inhibition of Feline immunodeficiency virus Sendai-1 envelope glycoprotein gp40 assessed as inhibition of HR1-HR2 interaction after 1.5 hrs by ELISA
[4] = Inhibition of Feline immunodeficiency virus UK8 envelope glycoprotein gp40 assessed as inhibition of HR1-HR2 interaction after 1.5 hrs by ELISA
[5] = tested on: MT4; assay: Inhibition of Feline immunodeficiency virus envelope glycoprotein 40-mediated cell fusion between virus-transfected feline thymic lymphoma 3201 cells and human MT4 cells at 10 uM after 7 days; type: cell-based

| pIC50 [1] | pIC50 [2] | pIC50 [3] | pIC50 [4] | Molecule | Activity [5] |
| --- | --- | --- | --- | --- | --- |
| < 5.00 | – | – | – | H-WEEWDKKIEEYTKKIEELIKKSEEQQKKNEEELKK-OH | – |
| < 5.00 | – | – | – | H-GEETLKKWEEQTKKLEEKFKKIEENIKKNEEQVKKGEEQLKK-OH | – |
| 6.77 | – | – | – | H-NEELGKKYEETKKKQEEFYKKIEEIEKKNEEVKKKLEELQKK-OH | – |
| 7.89 | 7.71 | 8.60 | 8.47 | H-LEEWYKKTEELQKKFEEIIKKIEENNKKGEEGLKK-OH | – |
| 6.71 | 5.60 | 7.43 | 6.74 | H-LRDWYNNTQQLQKKFYEIIYDIEQNNVQGKQGLQQ-OH | – |
| 6.70 | 6.69 | 7.37 | 6.35 | H-LEEWYKKTEELQKKFEEIIKKIEENSKKGEEGIKK-OH | – |
| 5.62 | < 5.00 | 6.36 | < 5.00 | H-LGEWYNQTKGLQQKFYEIIMDIEQNSVQGKKGIQQ-OH | – |
| 7.29 | 7.11 | 8.05 | 8.03 | CC[C@H](C)[C@H](NC(=O)CNC(=O)[C@H](CCC(=O)O)NC(=O)[C@H](CCC(=O)O)NC(=O)CNC(=O)[C@H](CCCCN)NC(=O)[C@H](CCCCN)NC(=O)[C@H](CC(N)=O)NC(=O)[C@H](CC(N)=O)NC(=O)[C@H](CCC(=O)O)NC(=O)[C@H](CCC(=O)O)NC(=O)[C@@H](NC(=O)[C@H](CCCCN)NC(=O)[C@H](CCCCN)NC(=O)[C@@H](NC(=O)[C@@H](NC(=O)[C@H](CCC(=O)O)NC(=O)[C@H](CCC(=O)O)NC(=O)[C@H](Cc1ccccc1)NC(=O)[C@H](CCCCN)NC(=O)[C@H](CCCCN)NC(=O)[C@H](CCC(N)=O)NC(=O)[C@H](CC(C)C)NC(=O)[C@H](CCC(=O)O)NC(=O)[C@H](CCC(=O)O)NC(=O)[C@@H](NC(=O)[C@H](CCCCN)NC(=O)[C@H](CCCCN)NC(=O)[C@H](Cc1ccc(O)cc1)NC(=O)[C@H](Cc1c[nH]c2ccccc12)NC(=O)[C@H](CCC(=O)O)NC(=O)[C@H](CCC(=O)O)NC(=O)[C@@H](N)CC(C)C)[C@@H](C)O)[C@@H](C)CC)[C@@H](C)CC)[C@@H](C)CC)C(=O)N[C@@H](CCCCN)C(=O)N[C@@H](CCCCN)C(=O)O | Active |
| 7.78 | 6.94 | 7.65 | 8.27 | H-LEEWYKKTEELQKKFEEIIKKIEENNKKVEEGLKK-OH | – |

| Molecule | pIC50 [1] | pIC50 [2] | pIC50 [3] | pIC50 [4] | Activity [5] |
| --- | --- | --- | --- | --- | --- |
| H-LGEWYNQTKELQQKFYEIIMNIEQNNVQVKKGLQQ-OH | 6.15 | 5.20 | 6.19 | 6.14 | – |
| H-LGEWYNQTKDLQQKFYEIIMDIEQNNVQGKKGIQQ-OH | 5.90 | 5.20 | 6.74 | 6.29 | Active |
